Experimental data as given in PubChem BioAssay AID1963979 (Molecular Pharmacology Branch, DTP, NCI, 2024).

Test system: 361931-004-R-J1-PDC multicell spheroid viability
Experiment: Anticancer human tumor 361931-004-R-J1-PDC patient-derived colon adenocarcinoma cell line growth inhibition [PI3K]
Conditions: for IC50: curve of first compound; for viability, T/C: stronger effect = lower value; active means viability on the fitted dose curve at most 10% of control; inactive means the rest
Outline: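 Targeted small molecules plus PI3K inhibitors, half-log dose series from Cmax (default top 10 microM), were applied to heterotypic spheroids of cancer cells with HUVEC and MSCs. Viability indicated growth inhibition.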

[1] = second compound 0.0316 µM, first compound 0.000316 µM
[2] = second compound 0.0316 µM, first compound 0.001 µM
[3] = second compound 0.0316 µM, first compound 0.00316 µM
[4] = second compound 0.0316 µM, first compound 0.01 µM
[5] = second compound 0.0316 µM, first compound 0.0316 µM
[6] = second compound 0.0316 µM, first compound 0.1 µM
[7] = second compound 0.1 µM, first compound 0.000316 µM
[8] = second compound 0.1 µM, first compound 0.001 µM
[9] = second compound 0.1 µM, first compound 0.00316 µM
[10] = second compound 0.1 µM, first compound 0.01 µM
[11] = second compound 0.1 µM, first compound 0.0316 µM
[12] = second compound 0.1 µM, first compound 0.1 µM
[13] = second compound 0.316 µM, first compound 0.000316 µM
[14] = second compound 0.316 µM, first compound 0.001 µM
[15] = second compound 0.316 µM, first compound 0.00316 µM
[16] = second compound 0.316 µM, first compound 0.01 µM
[17] = second compound 0.316 µM, first compound 0.0316 µM
[18] = second compound 0.316 µM, first compound 0.1 µM
[19] = second compound 1 µM, first compound 0.000316 µM
[20] = second compound 1 µM, first compound 0.001 µM
[21] = second compound 1 µM, first compound 0.00316 µM
[22] = second compound 1 µM, first compound 0.01 µM
[23] = second compound 1 µM, first compound 0.0316 µM
[24] = second compound 1 µM, first compound 0.1 µM
[25] = second compound 3.16 µM, first compound 0.000316 µM
[26] = second compound 3.16 µM, first compound 0.001 µM
[27] = second compound 3.16 µM, first compound 0.00316 µM
[28] = second compound 3.16 µM, first compound 0.01 µM
[29] = second compound 3.16 µM, first compound 0.0316 µM
[30] = second compound 3.16 µM, first compound 0.1 µM
[31] = second compound 10 µM, first compound 0.000316 µM
[32] = second compound 10 µM, first compound 0.001 µM
[33] = second compound 10 µM, first compound 0.00316 µM
[34] = second compound 10 µM, first compound 0.01 µM
[35] = second compound 10 µM, first compound 0.0316 µM
[36] = second compound 10 µM, first compound 0.1 µM
[37] = second compound 0.00316 µM, first compound 0.0316 µM
[38] = second compound 0.00316 µM, first compound 0.1 µM
[39] = second compound 0.01 µM, first compound 0.0316 µM
[40] = second compound 0.01 µM, first compound 0.1 µM
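Further: spheroids exposed to agents for seven days before readout.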

Cn1ncnc1[C@H]1c2n[nH]c(=O)c3cc(F)cc(c23)N[C@@H]1c1ccc(F)cc1 + Cc1nc(NC(=O)N2CCCC2C(N)=O)sc1-c1ccnc(C(C)(C)C(F)(F)F)c1
inactive: viability, T/C [1] 98% | viability, T/C [2] 93.1% | viability, T/C [3] 97.3% | viability, T/C [4] 93% | viability, T/C [5] 79.8% | viability, T/C [6] 85.3% | viability, T/C [7] 109% | viability, T/C [8] 93.6% | viability, T/C [9] 94.5% | viability, T/C [10] 93.2% | viability, T/C [11] 86.5% | viability, T/C [12] 76.8% | viability, T/C [13] 98.2% | viability, T/C [14] 86.1% | viability, T/C [15] 81.7% | viability, T/C [16] 81.8% | viability, T/C [17] 83.5% | viability, T/C [18] 80.8% | viability, T/C [19] 87.3% | viability, T/C [20] 73.4% | viability, T/C [21] 84.5% | viability, T/C [22] 79.4% | viability, T/C [23] 90.1% | viability, T/C [24] 70.3% | viability, T/C [25] 70.4% | viability, T/C [26] 81.8% | viability, T/C [27] 77.4% | viability, T/C [28] 66.9% | viability, T/C [29] 72.6% | viability, T/C [30] 62.2% | viability, T/C [31] 62.2% | viability, T/C [32] 54.5% | viability, T/C [33] 54% | viability, T/C [34] 56.6% | viability, T/C [35] 47.9% | viability, T/C [36] 49.2%
> 0.1 µM: IC50 (second compound 0.0316 µM) | IC50 (second compound 0.1 µM) | IC50 (second compound 0.316 µM) | IC50 (second compound 1 µM) | IC50 (second compound 3.16 µM)
0.0484 µM: IC50 (second compound 10 µM)

CC1(C)CCC(Nc2ncc(C(F)(F)F)c(-c3c[nH]c4c(P(C)(C)=O)c(C#N)ccc34)n2)CN1 (stereo not drawn) + CC(Nc1ccc2c(c1)OCCn1cc(N3C(=O)OCC3C(F)F)nc1-2)C(N)=O
4.25 µM: IC50 (second compound 0.00316 µM)
3.63 µM: IC50 (second compound 0.316 µM)
3.95 µM: IC50 (second compound 0.0316 µM)
3.55 µM: IC50 (second compound 0.1 µM)
inactive: viability, T/C [37] 72.1% | viability, T/C [38] 78.7% | viability, T/C (second compound 0.00316 µM, first compound 0.316 µM) 76.4% | viability, T/C (second compound 0.00316 µM, first compound 1 µM) 72.6% | viability, T/C (second compound 0.00316 µM, first compound 3.16 µM) 66.1% | viability, T/C [39] 84.2% | viability, T/C [40] 79.8% | viability, T/C (second compound 0.01 µM, first compound 0.316 µM) 75% | viability, T/C (second compound 0.01 µM, first compound 1 µM) 77.9% | viability, T/C (second compound 0.01 µM, first compound 3.16 µM) 67.8% | viability, T/C [5] 78.7% | viability, T/C [6] 69.8% | viability, T/C (second compound 0.0316 µM, first compound 0.316 µM) 70.8% | viability, T/C (second compound 0.0316 µM, first compound 1 µM) 67.1% | viability, T/C (second compound 0.0316 µM, first compound 3.16 µM) 62.2% | viability, T/C [11] 84.2% | viability, T/C [12] 72.3% | viability, T/C (second compound 0.1 µM, first compound 0.316 µM) 64.9% | viability, T/C (second compound 0.1 µM, first compound 1 µM) 69.5% | viability, T/C (second compound 0.1 µM, first compound 3.16 µM) 57% | viability, T/C [17] 66.6% | viability, T/C [18] 64.2% | viability, T/C (second compound 0.316 µM, first compound 0.316 µM) 61.1% | viability, T/C (second compound 0.316 µM, first compound 1 µM) 68.4% | viability, T/C (second compound 0.316 µM, first compound 3.16 µM) 55.5% | viability, T/C [23] 64.5% | viability, T/C [24] 52.5% | viability, T/C (second compound 1 µM, first compound 0.316 µM) 56.4% | viability, T/C (second compound 1 µM, first compound 1 µM) 56.7% | viability, T/C (second compound 1 µM, first compound 3.16 µM) 46.2%
active: viability, T/C (second compound 0.00316 µM, first compound 10 µM) 3.82% | viability, T/C (second compound 0.01 µM, first compound 10 µM) 4.66% | viability, T/C (second compound 0.0316 µM, first compound 10 µM) 3.26% | viability, T/C (second compound 0.1 µM, first compound 10 µM) 3.49% | viability, T/C (second compound 0.316 µM, first compound 10 µM) 3.54% | viability, T/C (second compound 1 µM, first compound 10 µM) 3.28%
2.06 µM: IC50 (second compound 1 µM)
4.37 µM: IC50 (second compound 0.01 µM)

CC(C)n1nc(-c2ccc3oc(N)nc3c2)c2c(N)ncnc21 + CC(Nc1ncnc2nc[nH]c12)c1cc2cccc(Cl)c2c(=O)n1-c1ccccc1
> 0.1 µM: IC50 (second compound 0.0316 µM) | IC50 (second compound 0.1 µM) | IC50 (second compound 0.316 µM) | IC50 (second compound 1 µM) | IC50 (second compound 3.16 µM) | IC50 (second compound 10 µM)
inactive: viability, T/C [1] 103% | viability, T/C [2] 107% | viability, T/C [3] 105% | viability, T/C [4] 104% | viability, T/C [5] 108% | viability, T/C [6] 77.9% | viability, T/C [7] 111% | viability, T/C [8] 106% | viability, T/C [9] 104% | viability, T/C [10] 99.1% | viability, T/C [11] 107% | viability, T/C [12] 81.5% | viability, T/C [13] 98.2% | viability, T/C [14] 103% | viability, T/C [15] 108% | viability, T/C [16] 109% | viability, T/C [17] 115% | viability, T/C [18] 74.8% | viability, T/C [19] 97.4% | viability, T/C [20] 105% | viability, T/C [21] 104% | viability, T/C [22] 107% | viability, T/C [23] 105% | viability, T/C [24] 72.3% | viability, T/C [25] 109% | viability, T/C [26] 106% | viability, T/C [27] 100% | viability, T/C [28] 96.2% | viability, T/C [29] 100% | viability, T/C [30] 72.4% | viability, T/C [31] 107% | viability, T/C [32] 107% | viability, T/C [33] 107% | viability, T/C [34] 104% | viability, T/C [35] 103% | viability, T/C [36] 63.5%

Cn1ncnc1[C@H]1c2n[nH]c(=O)c3cc(F)cc(c23)N[C@@H]1c1ccc(F)cc1 + CC(Nc1ccc2c(c1)OCCn1cc(N3C(=O)OCC3C(F)F)nc1-2)C(N)=O
> 0.1 µM: IC50 (second compound 0.00316 µM) | IC50 (second compound 0.01 µM) | IC50 (second compound 0.0316 µM) | IC50 (second compound 0.1 µM) | IC50 (second compound 0.316 µM) | IC50 (second compound 1 µM)
inactive: viability, T/C (second compound 0.00316 µM, first compound 0.000316 µM) 95.9% | viability, T/C (second compound 0.00316 µM, first compound 0.001 µM) 96.1% | viability, T/C (second compound 0.00316 µM, first compound 0.00316 µM) 89.4% | viability, T/C (second compound 0.00316 µM, first compound 0.01 µM) 88.8% | viability, T/C [37] 95.6% | viability, T/C [38] 81.9% | viability, T/C (second compound 0.01 µM, first compound 0.000316 µM) 99.7% | viability, T/C (second compound 0.01 µM, first compound 0.001 µM) 98.7% | viability, T/C (second compound 0.01 µM, first compound 0.00316 µM) 94.6% | viability, T/C (second compound 0.01 µM, first compound 0.01 µM) 94.2% | viability, T/C [39] 89.8% | viability, T/C [40] 91.1% | viability, T/C [1] 97.8% | viability, T/C [2] 100% | viability, T/C [3] 95.4% | viability, T/C [4] 94.3% | viability, T/C [5] 98% | viability, T/C [6] 93.6% | viability, T/C [7] 101% | viability, T/C [8] 77.5% | viability, T/C [9] 93.7% | viability, T/C [10] 86.2% | viability, T/C [11] 82% | viability, T/C [12] 67.1% | viability, T/C [13] 89.3% | viability, T/C [14] 94.8% | viability, T/C [15] 86.2% | viability, T/C [16] 85.4% | viability, T/C [17] 77.5% | viability, T/C [18] 76.2% | viability, T/C [19] 85.9% | viability, T/C [20] 77.4% | viability, T/C [21] 88.2% | viability, T/C [22] 69.7% | viability, T/C [23] 70.6% | viability, T/C [24] 64.4%
